These results are taken from patent publication US11377469B2, “CD73 inhibitors” (ORIC Pharmaceuticals, Inc., priority 2017, dated 2022).

This assay deals with CD73 (Homo sapiens (Human), UniProt P21589). As to the kind of experiment: Biochemical Assay (CD73 inhibition, AMP hydrolysis, Malachite Green readout). The following applies: CD73 0.3208 nM, AMP 15 μM, Tris-HCl pH 7.4, Malachite Green absorbance.
Sequence of CD73 (P21589 27-574): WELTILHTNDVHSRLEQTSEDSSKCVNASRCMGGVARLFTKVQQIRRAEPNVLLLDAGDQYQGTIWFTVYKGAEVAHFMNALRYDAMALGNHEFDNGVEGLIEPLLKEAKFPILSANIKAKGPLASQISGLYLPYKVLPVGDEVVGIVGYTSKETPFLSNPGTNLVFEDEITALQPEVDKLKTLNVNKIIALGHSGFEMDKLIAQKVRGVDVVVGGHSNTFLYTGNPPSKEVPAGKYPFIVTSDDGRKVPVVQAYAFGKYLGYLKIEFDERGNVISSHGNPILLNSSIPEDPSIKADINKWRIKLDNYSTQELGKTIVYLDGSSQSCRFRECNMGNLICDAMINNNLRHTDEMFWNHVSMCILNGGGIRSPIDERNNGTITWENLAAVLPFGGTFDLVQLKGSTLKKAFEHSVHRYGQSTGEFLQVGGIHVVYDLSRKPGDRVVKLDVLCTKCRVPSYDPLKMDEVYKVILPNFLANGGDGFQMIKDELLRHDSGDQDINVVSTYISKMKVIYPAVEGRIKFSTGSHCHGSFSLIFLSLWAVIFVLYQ
Regarding `O=P(O)(O)COC[C@H]1O[C@@H](n2nnc3c(NCc4ccccc4Cl)nc(Cl)nc32)[C@H](O)[C@@H]1O` [Example 30, ((((2R,3S,4R,5R)-5-(5-chloro-7-((2-chlorobenzyl)pamino)-3H-[1,2,3]triazolo[4,5-d]pyrimidin-3-yl)-3,4-dihydroxytetrahydrofuran-2-yl)methoxy)methyl)phosphonic acid], the IC50 is no more than 500 nM.

In the case of `O=P(O)(O)COC[C@H]1O[C@@H](n2ncc3c(NC4CCC4)nc(Cl)nc32)[C@H](O)[C@@H]1O` [Example 79, ((((2R,3S,4R,5R)-5-(6-chloro-4-(cyclobutylamino)-1H-pyrazolo[3,4-d]pyrimidin-1-yl)-3,4-dihydroxytetrahydrofuran-2-yl)methoxy)methyl)phosphonic acid], the IC50 is no more than 500 nM.

Regarding `O=P(O)(O)COCC[C@H]1O[C@@H](n2ncc3c(NCC4CC4)nc(Cl)nc32)[C@H](O)[C@@H]1O` [Example 85, ((2-((2R,3S,4R,5R)-5-(6-chloro-4-((cyclopropylmethyl)amino)-1H-pyrazolo[3,4-d]pyrimidin-1-yl)-3,4-dihydroxytetrahydrofuran-2-yl)ethoxy)methyl)phosphonic acid], the IC50 was greater than 1000 nM.

With “((((2R,3S,4R,5R)-5-(5-chloro-7-((3- chlorobenzyl)pamino)-3H[1,2,3]triazolo[4,5- d]pyrimidin-3-yl)-3,4- dihydroxytetrahydrofuran-2- yl)methoxy)methyl)phosphonic acid [Example 24]”, the IC50 is no more than 500 nM.

`CN(Cc1cccc(Cl)c1)c1nc(Cl)nc2c1cnn2[C@@H]1O[C@H](COCP(=O)(O)O)[C@@H](O)[C@H]1O` [Example 37, ((((2R,3S,4R,5R)-5-(6-chloro-4-((3-chlorobenzyl)(methyl)amino)-1H-pyrazolo[3,4-d]pyrimidin-1-yl)-3,4-dihydroxytetrahydrofuran-2-yl)methoxy)methyl)phosphonic acid] gave an IC50 of no more than 500 nM.

With `CN(C[C@H]1O[C@@H](n2ncc3c(NC4CCCC4)nc(Cl)nc32)[C@H](O)[C@@H]1O)S(=O)(=O)CP(=O)(O)O` [Example 98, ((N-(((2R,3S,4R,5R)-5-(6-Chloro-4-(cyclopentylamino)-1H-pyrazolo[3,4-d]pyrimidin-1-yl)-3,4-dihydroxytetrahydrofuran-2-yl)methyl)-N-methylsulfamoyl)methyl)phosphonic acid], the IC50 was no more than 500 nM.

Compound `CC1(CNc2nc(Cl)nc3c2cnn3[C@@H]2O[C@H](COCP(=O)(O)O)[C@@H](O)[C@H]2O)CC1` [Example 96, ((((2R,3S,4R,5R)-5-(6-chloro-4-(((1-methylcyclopropyl)methyl)amino)-1H-pyrazolo[3,4-d]pyrimidin-1-yl)-3,4-dihydroxytetrahydrofuran-2-yl)methoxy)methyl)phosphonic acid] gave an IC50 of no more than 500 nM.

On to `CC(=O)N(c1nc(Cl)nc2c1cnn2[C@@H]1O[C@H](COCP(=O)(O)O)[C@@H](O)[C@H]1O)C1CCCC1` [Example 99, ((((2R,3S,4R,5R)-5-(6-Chloro-4-(N-cyclopentylacetamido)-1H-pyrazolo[3,4-d]pyrimidin-1-yl)-3,4-dihydroxytetrahydrofuran-2-yl)methoxy)methyl)phosphonic acid], for which the IC50 is no more than 500 nM.

Compound `O=P(O)(O)CS(=O)(=O)C[C@H]1O[C@@H](n2ncc3c(NC4CCCC4)nc(Cl)nc32)[C@H](O)[C@@H]1O` [Example 66, (((((2S,3S,4R,5R)-5-(6-chloro-4-(cyclopentylamino)-1H-pyrazolo[3,4-d]pyrimidin-1-yl)-3,4-dihydroxytetrahydrofuran-2-yl)methyl)sulfonyl)methyl)phosphonic acid] gave an IC50 of no more than 500 nM.

Consider `O=P(O)(O)CS(=O)(=O)C[C@H]1O[C@@H](n2ncc3c(NC4Cc5ccccc5C4)nc(Cl)nc32)[C@H](O)[C@@H]1O` [Example 126, (((((2S,3S,4R,5R)-5-(6-chloro-4-((2,3-dihydro-1H-inden-2-yl)amino)-1H-pyrazolo[3,4-d]pyrimidin-1-yl)-3,4-dihydroxytetrahydrofuran-2-yl)methyl)sulfonyl)methyl)phosphonic acid], for which the IC50 is no more than 500 nM.

By IC50 is commonly meant the concentration needed to halve the response being measured.
